Results from patent US20120003298A1, “METHODS FOR INDUCING AN IMMUNE RESPONSE” (priority 2010, published 2012).
Read-outs that look alike come from different tables or passages of the source.

Legend:
[1] = Metabolic profiling in human plasma, LC/MS/MS; assay type: in vitro ADME
Method: (§1) Before the analysis of the incubated samples, compound A was infused manually to understand parent fragmentation. Infusion was performed by diluting a 50 mM solution in DMSO to 1 μM with ACN/MeOH 1/1. Sample solution was infused into the ion trap source at a flow rate of 4 μl/min.
(§2) Incubated samples were analyzed on a HPLC (Waters) interfaced with an Ion Trap HCT ultra (Bruker Daltonics).
(§3) Assignment of the structures was done by comparison of the MS/MS analysis of the spectra with the parent spectrum.
(§4) Metabolic profiling was studied in rabbit and human plasma. In both matrixes the parent compound (50 uM starting concentration) was totally metabolized at the last time point. Metabolites were detected in Full scan and peaks were assigned by MH+ and MS/MS spectra.

RAW.264 cells = experiment: Intracellular uptake in RAW.264 cells, LC-MS; assay type: in vitro ADME; details: 10 microM
Method: 5×10^6 RAW.264 cells were adhered overnight in 10 cm tissue culture dishes. […] […] Supernatant (2 ml) and cells (pellets) were collected by trypsinization and frozen at […] for subsequent analysis by LC-MS.

human whole blood = experiment: Cytokine secretion in human whole blood assay, ELISA; assay type: cell-based; details: Homo sapiens
Method: Before drawing the blood, the compounds were added to 96 well round bottom plates in a 10× diluted sample at 20 ul. The compounds were diluted in RPMI media without serum but with antibiotics. Antibiotics were added at a 10× concentration. After drawing the blood, the whole blood sample was gently mixed to obtain a homogeneous sample, and 180 ul was added to each well.
All compounds were setup in concentrations at 0-0.01-0.03-0.1-0.5-2.0-10.0 micromolar as the final concentration. Vehicle control was DMSO control, where we used the highest concentration used for the compounds. After addition of blood, all plates were gently agitated at 37° C. and 5% CO2 until harvest.
For the 6 hours time point, the plate was centrifuged 500×g. Supernatant (SN) was transferred to a tube and centrifuged at 10.000×g for 10 min to get rid of cells and protein aggregates. The clarified supernatant was frozen at −80° C. until analysis.
The SN was removed to another tube and centrifuged at 10.000×g for 10 min. to get rid of aggregates etc. The clarified supernatant was frozen at −80° C. until analysis.
Concentrations of cytokines were determined by ELISA from R&D Systems. The results were analyzed in Graph Pad Prism in order to prepare dose-response
curves, and for determination of EC50 values. FACS analysis was made by using Becton-Dickinson FACSDiva software and subsequently illustrated in Graph Pad Prism.

PBMCs = experiment: IL-6 and TNF-alpha secretion in PBMC model (Model 2), ELISA; assay type: cell-based, human; details: Homo sapiens, PBMC
[2] = tested on: recombinant antigens from Plasmodium falciparum and Mycobacterium ulcerans; experiment: Pilot immunization study with adjuvanted recombinant protein antigens; assay type: in vivo, mouse; details: subcutaneous, 10 nMol
Method: A pilot immunization study was conducted using Compound A and SC12 adjuvanted protein antigens. The immunization experiments were performed with two recombinant proteins expressed in E. coli. One antigen was derived from the malaria parasite Plasmodium falciparum and the other one from Mycobacterium ulcerans, which cause the ulcerative skin disease Buruli ulcer.

[3] = tested on: mouse macrophage cell line Raw264.7; experiment: IL-6 and TNF-alpha secretion in Raw264.7 cells (Model 1), ELISA; assay type: cell-based; details: for EC50: Raw 264.7, 24 hours, 7 doses
[4] = Stability on storage by HPLC (solid or chloroform solution; temperature, light)
Method: At this point, a stability study was conducted on batch CH730/16/8g.
The samples were analyzed at t=0 and after 20 days.

[5] = Metabolic profiling in rabbit plasma, LC/MS/MS; assay type: in vitro ADME
Method: as §1, §2, §3, §4

[6] = Solubility, method of the European Pharmacopoeia 6.0; assay type: physicochemical
Method: The method reported in the European Pharmacopoeia 6.0 was used.
Batch CH730/16/8g was tested according to the method described in E. Ph: DMSO was added in 0.1 mL portions to 103.7 mg of product and the suspension was shaken with a Vortex instrument for 3 min after each addition.
The batches CH730/16/8c, CH730/16/8g and CH730/23/8e were then tested stirring each suspension for a longer time; 100 mg of each batch dissolved completely in 0.2 mL of DMSO after stirring for 30 minutes.

[7] = Intrabladder application, serum cytokines (Luminex) and histology; assay type: in vivo, mouse; details: day 0, 2 hour time point; intravesical about 207 nmoles in 50 μl
Method: Female C57BU6 mice were anesthetized with ketamine/xylazine. The 50 microliter formulated compounds were intravesically administered for twenty minutes at each treatment. The treatment schedule and doses are in Table 35 and 36, respectively. The levels of cytokines (IL-6, IL-12, and TNF-alpha) were determined by Luminex assay. Paraffin sections were prepared and H & E staining performed.

[8] = tested on: myeloid CD11c+/CD123− DCs; experiment: FACS, myeloid DC activation in whole blood; assay type: cell-based, human; details: 24 hours; 0.1 and 0.5 uM
Method: The FACS analysis for donor 1 and donor 2 was made on another day than donor 3. The compound concentrations were as follows:
B cell activation: 2 and 10 uM mDC/pDC: 0.1 and 0.5 uM
The FACS analysis was used to identify whether the test compounds could induce activation of B cells, and two different subsets of dendritic cells, namely the myeloid CD11c+/CD123− DCs and the plasmacytoid CD11c−/CD123+DCs. The following markers were studied to identify the activation status of the different subsets:
The FACS staining was performed according to the manufacturer's instructions. Lysis of red blood cells was performed before FACS staining in order to minimize auto-florescence. To include as many B cells and DCs in the study as possible the FACS analyses were performed on 500,000 cells in total for each staining. A P1 gate was set only to include relevant cells on FSC vs. SSC (see FIGS. 12-15). The results of the individual analysis were present as Mean Fluorescence Intensity (MFI) values, for certain activation marker in a given gate setting, represent the actual cell subset. The isotype background values have been used to set the gates so that a maximum at 2% of unspecific stained cells could be found in the positive gates.
The analysis of myeloid DCs was based on HLA-DR+/CD11c+/CD123-cells, thus all analyzed cells was included in the HLA-DR+(P3) gate and CD11c+/CD123− (Q4) gate (see gates in FIGS. 13-15).

MB49 cells = experiment: Mouse bladder cancer model, intravesical treatment (Experiment 24); assay type: in vivo; details: Experiment 1; in Phosal 50, 50 microliters, 20 minutes; 2 h and 24 h
Method: A set of experiments was conducted with SC12 in various solutions, in a mouse bladder cancer model.
7-9 week old C57BU6 mice were implanted with 1×10^6 MB49 cells after 0.1% poly L lysine treatment on day 0. […] On day 11, mice were sacrificed and organs were harvested.

HLA-DR+/CD20+ B cells = experiment: FACS, B cell activation in whole blood; assay type: cell-based, human; details: 24 hours; 2 and 10 uM
Method: B-cells: HLA-DR/CD20/CD40
The FACS staining was performed according to the manufacturer's instructions. Lysis of red blood cells was performed before FACS staining in order to minimize auto-florescence. To include as many B cells and DCs in the study as possible the FACS analyses were performed on 500,000 cells in total for each staining. […] The results of the individual analysis were present as Mean Fluorescence Intensity (MFI) values, for certain activation marker in a given gate setting, represent the actual cell subset. The isotype background values have been used to set the gates so that a maximum at 2% of unspecific stained cells could be found in the positive gates.
The analysis of expression of the activation marker CD40 on B cells was made on double positive HLA-DR (MHC class II) (P4 gate) and CD20 cells (B cell marker) (P8 gate).

[9] = tested on: Cutaneous Squamous Cell Carcinoma (SCC) cell lines SCL-I, SCL-II, SCC-12, SCC-13; details: FIG. 11
Method: SCC cells are grown under standard conditions (10% FBS).
Time and dose dependency of effects on total cell numbers have been investigated by real-time cell analysis, which is based on continuous monitoring of electric conductance in microtiter wells (E-plates, Roche), which corresponds to the cell numbers. […] For these assays 4 cell lines may be used to obtain a representative overview on the effects on SCC cells.

human PBMCs = experiment: IL-6 secretion in human PBMCs, two batches of Compound A and SC12 (Example 4); assay type: cell-based; details: PBMCs, 10-1-0.1-0.01 micromolar
Method: PBMCs were purified from two donors and plated into 96 well plates at 2×10^5 cells/well in RPMI media including human 2% heat inactivated AB serum, glutamine, Pen-strep and β-mercaptoethanol. The cells were treated with TLR7 agonists for 24 h in 4 doses. The conditioned media was removed for ELISA analyses for IL-6, and the EC50 value determined for each compound and each batch.
All compounds were tested in four concentrations (10-1-0.1-0.01 micromolar).
Concentrations of IL-6 were determined by ELISA from R&D Systems using the Microsoft Excel software. The results were analyzed in Graph Pad Prism in order to prepare dose-response curves, and for determination of EC50 values.

[10] = tested on: AY-27 rat bladder cancer cell-line; experiment: Orthotopic rat bladder cancer model, intravesical instillation
[11] = Solubility observations in the text; details: methanol, ethanol, dichloromethane, ethyl acetate, acetonitrile, acetone, chloroform

## CCCCCCCC/C=C\CCCCCCCC(=O)OCC(COP(=O)(O)OCCNC(=O)c1ccc(Cn2c(=O)[nH]c3c(N)nc(OCCOC)nc32)cc1)OC(=O)CCCCCCC/C=C\CCCCCCCC (centres unmarked) [Compound A, 2-(4-((6-amino-2-(2-methoxyethoxy)-8-oxo-7H-purin-9(8H)-yl)methyl)benzamido)ethyl 2,3-bis(oleoyloxy)propyl phosphate]
[1]
  metabolism in plasma: highly metabolized by esterases
RAW.264 cells; Incubation 1 hours
  Intracellular Concentration % of total: 5.50 % of total
RAW.264 cells; Incubation 6 hours
  Intracellular Concentration % of total: 4.27 % of total
RAW.264 cells; Incubation 16 hours
  Intracellular Concentration % of total: 1.53 % of total
Human whole blood; 6 h, read-out: EC50-IFN-alpha, 6 h Incubation, Donor 1, whole blood
  EC50: 1170 nM
Human whole blood; 6 h, read-out: EC50-IFN-alpha, 6 h Incubation, Donor 2, whole blood
  EC50: 1840 nM
Human whole blood; 6 h, read-out: EC50-IFN-alpha, 6 h Incubation, Donor 3, whole blood
  EC50: 1940 nM
Human whole blood; 6 h, read-out: EC50-IL-6, 6 h Incubation, Donor 1, whole blood
  EC50: 940 nM
Human whole blood; 6 h, read-out: EC50-IL-6, 6 h Incubation, Donor 2, whole blood
  EC50: 630 nM
Human whole blood; 6 h, read-out: EC50-IL-6, 6 h Incubation, Donor 3, whole blood
  EC50: 520 nM
Human whole blood; 6 h, read-out: EC50-IL-12, 6 h Incubation, Donor 1, whole blood, IL-12p40
  EC50: 2310 nM
Human whole blood; 6 h, read-out: EC50-IL-12, 6 h Incubation, Donor 2, whole blood, IL-12p40
  EC50: 2090 nM
Human whole blood; 6 h, read-out: EC50-IL-12, 6 h Incubation, Donor 3, whole blood, IL-12p40
  EC50: 3430 nM
Human whole blood; 24 h, read-out: EC50-IFN-alpha, 24 h Incubation, Donor 1
  EC50: 240 nM
Human whole blood; 24 h, read-out: EC50-IFN-alpha, 24 h Incubation, Donor 2
  EC50: 470 nM
Human whole blood; 24 h, read-out: EC50-IFN-alpha, 24 h Incubation, Donor 3
  EC50: 350 nM
Human whole blood; 24 h, read-out: EC50-IL-6, 24 h Incubation, Donor 1
  EC50: 520 nM
Human whole blood; 24 h, read-out: EC50-IL-6, 24 h Incubation, Donor 2
  EC50: 320 nM
Human whole blood; 24 h, read-out: EC50-IL-6, 24 h Incubation, Donor 3
  EC50: 290 nM
Human whole blood; 24 h, read-out: EC50-IL-10, 24 h Incubation, Donor 1
  EC50: 1290 nM
Human whole blood; 24 h, read-out: EC50-IL-10, 24 h Incubation, Donor 2
  EC50: 860 nM
Human whole blood; 24 h, read-out: EC50-IL-10, 24 h Incubation, Donor 3
  EC50: 2280 nM
Human whole blood; 24 h, whole blood, read-out: EC50-IL-12p40, 24 h Incubation, Donor 1
  EC50: 2870 nM
Human whole blood; 24 h, whole blood, read-out: EC50-IL-12p40, 24 h Incubation, Donor 2
  EC50: 2740 nM
Human whole blood; 24 h, whole blood, read-out: EC50-IL-12p40, 24 h Incubation, Donor 3
  EC50: 4030 nM
PBMCs; 24 hours, read-out: TNF-alpha secretion, Donor 1 MC50
  EC50: 644 nM
PBMCs; 24 hours, read-out: TNF-alpha secretion, Donor 2 MC50
  EC50: 665 nM
PBMCs; 24 hours, read-out: TNF-alpha secretion, Donor 3 MC50
  EC50: 639 nM
PBMCs; average of three donors, read-out: IL-6 secretion, Average EC50
  EC50: 485 nM
PBMCs; average of three donors, read-out: TNF-alpha secretion, Average EC50
  EC50: 650 nM
[2]
  local side effects: No local side effects
[3]; Mus musculus, RAW264.7, read-out: EC 50 IL 6
  EC50: 6 nM
[3]; Mus musculus, RAW264.7, read-out: EC 50 TNF-alpha
  EC50: 9 nM
[4]; T>25° C. and in the presence of light
  degradation: rapid degradation
[4]; batch CH730/16/8g, solid
  degradation of solid samples: almost completely degraded after few days
[4]; room temperature and/or in the presence of light
  stability: not a stable compound
[5]
  metabolism in plasma: highly metabolized by esterases
[6]
  solubility in DMSO: soluble
[6]; chloroform, organic solvent or mixture, thermodynamic from solid
  solubility: 100 mg/mL
[6]; organic solvent or mixture, thermodynamic from solid, batch Ch730/16/8g, DMSO added in 0.1 mL portions, Vortex 3 min after each addition
  solubility at 3 min: 259 mg/mL
[6]; organic solvent or mixture, thermodynamic from solid, three batches, 100 mg in 0.2 mL of DMSO after stirring for 30 minutes
  solubility at 30 min: 500 mg/mL

## CC(C)Cn1cnc2c(N)nc3ccccc3c21 [Imiquimod, reference compound]
[7]
  serum IL-12: elevated levels of IL-12
[8]
  CD80 expression in mDCs (MFI, words): weak expression of CD80 in donor 1 and 2
MB49 cells
  serum IL-6 and TNF-alpha: under the detection levels
[3]
  potency as TLR7 agonist: weakest induction of IL-6 and TNF-alpha
HLA-DR+/CD20+ B cells
  CD40 expression on B cells (MFI, words): increased expression in all three donors
[9]
  cell numbers, real-time cell analysis: reduced cell numbers
Human PBMCs
  IL-6 induction: only active in inducing IL-6 at the highest concentration (10 uM)
[10]; intravesical, day 2 and 5
  toxicity: No signs of toxicity
[10]; of 14 per group
  Number of rat bladders Tumor free: 5
  Number of rat bladders with pT2 Tumor: 9

## COCCOc1nc(N)c2[nH]c(=O)n(Cc3ccc(C(=O)O)cc3)c2n1 [Free pharmacophore, reference compound]
[3]; read-out: EC 50 TNF-alpha
  EC50: 707 nM

## COCCOc1nc(N)c2[nH]c(=O)n(Cc3ccc(C(=O)O)cc3)c2n1 [Compound 7, 4-((6-amino-2-(2-methoxyethoxy)-8-oxo-7H-purin-9(8H)-yl)methyl)benzoic acid]
[11]
  solubility in common solvents: not soluble in most of the common solvents
